Measurements taken from article PMC10424176, “Chamelogk: A Chromatographic Chameleonicity Quantifier to Design Orally Bioavailable Beyond-Rule-of-5 Drugs” (Journal of Medicinal Chemistry, 2023).

Columns and labels:
[1] = Chamelogk, chromatographic chameleonicity descriptor (PLRP-S RP-HPLC); assay type: physicochemical; details: Exp. minus Ext. log k' PLRP-S at 100% MeCN, linear fit at 50, 60, 70% MeCN, 20 mM ammonium acetate pH 7.0, 30 °C
[2] = cited from earlier work
[3] = log kW^IAM and Δ log kW^IAM (IAM chromatography); assay type: physicochemical; details: for log kW^IAM: IAM column, extrapolated to 100% buffer from 10 to 50% MeCN, pH 7.0; for Δ log kW^IAM: polarity, from log kW^IAM and BRlogD (eq 4, 5)
Protocol: The mobile phases for every descriptor consisted of isocratic solutions of 20 mM ammonium acetate at pH 7.0 and acetonitrile at various percentages (see the specific descriptor). Small amounts of the 55 compounds were dissolved in buffer/acetonitrile mixtures (v/v) at concentrations ranging from 50 to 100 μg/mL. Subsequently, 10 μL of each solution (injection volume) was injected at an isocratic flow rate of 1 mL/min and analyzed at 30 °C (oven temperature). Chromatographic measurements were then analyzed in duplicate based on the specific chromatographic conditions of each descriptor. […] The retention times of the samples were recorded, and the capacity factor was calculated for each mobile phase condition adapting eq 2, where t0 is the retention time of citric acid.

[4] = physchem; assay type: physicochemical; details: pH 7
Protocol: The mobile phases for every descriptor consisted of isocratic solutions of 20 mM ammonium acetate at pH 7.0 and acetonitrile at various percentages (see the specific descriptor). Small amounts of the 55 compounds were dissolved in buffer/acetonitrile mixtures (v/v) at concentrations ranging from 50 to 100 μg/mL. Subsequently, 10 μL of each solution (injection volume) was injected at an isocratic flow rate of 1 mL/min and analyzed at 30 °C (oven temperature). Chromatographic measurements were then analyzed in duplicate based on the specific chromatographic conditions of each descriptor.
BRlogD[39] required the injection of 55 samples into the X-Bridge column at 60% MeCN (predominant mobile phase constituent). The retention times and dead time (t0, baseline interference) were recorded, and the capacity factor log k’60 was calculated adapting eq 2. Lastly, BRlogD value was calculated from eq 3 [drawing 3] 3

Structure (SMILES) | Chamelogk [1] | other results
Brc1cnc2ccccc2c1 [3-bromoquinoline] | 0.13 | 
O=C1CCC(N2C(=O)c3cccc(F)c3C2=O)C(=O)N1 (centres unmarked) [4-F-thalidomide] | 0.23 | 
O=C1CCC(N2C(=O)c3cccc(O)c3C2=O)C(=O)N1 (centres unmarked) [4-hydroxy thalidomide] | –0.16 | 
CCCN1C(=O)c2ccc(Cl)cc2Nc2ncccc21 [BI-0115] | 0.19 | 
COc1cc(C(=O)NCCOCCOCCOCC(=O)N[C@H](C(=O)N2C[C@H](O)C[C@H]2C(=O)NCc2ccc(-c3scnc3C)cc2)C(C)(C)C)ccc1Nc1ncc(C(F)(F)F)c(Oc2cccc3c2C(=O)CC3)n1 [BI-0319] | 0.99 | 
CCN1C(=O)c2cc(C)ccc2Nc2ncccc21 [BI-1580] | 0.1 | 
COc1cc(C(=O)NCCOCCOCCOCCC(=O)Nc2cccc3c2C(=O)N(C2CCC(=O)NC2=O)C3=O)ccc1Nc1ncc(C(F)(F)F)c(Oc2cccc3c2C(=O)CC3)n1 (centres unmarked) [BI-3663] | 0.5 | 
COc1cc(C(=O)NCCOCCOCCOCC(=O)N[C@H](C(=O)N2C[C@@H](O)C[C@H]2C(=O)NCc2ccc(-c3scnc3C)cc2)C(C)(C)C)ccc1Nc1ncc(C(F)(F)F)c(Oc2cccc3c2C(=O)CC3)n1 [BI-4206] | 0.7 | 
CC(=O)N[C@H](C(=O)N1C[C@H](O)C[C@H]1C(=O)NCc1ccc(-c2scnc2C)cc1)C(C)(C)SCCCCCCNC(=O)C[C@@H]1N=C(c2ccc(Cl)cc2)c2c(sc(C)c2C)-n2c(C)nnc21 [BRD4 degrader AT1] | 1.26 | 
Cc1sc2c(c1C)C(c1ccc(Cl)cc1)=NC(CC(N)=O)c1nnc(C)n1-2 (centres unmarked) [CPI203] | 0.54 | 
Cc1ncsc1-c1ccc(CNC(=O)[C@@H]2C[C@@H](O)CN2C(=O)[C@@H](NC(=O)CCCCOCCCCCOCCCCCCNc2cccc3c2C(=O)N(C2CCC(=O)NC2=O)C3=O)C(C)(C)C)cc1 (some centres unmarked) [CRBN-6-5-5-VHL] | 1.05 | 
CCn1nc(C2CC2)cc1Nc1nc(C(=O)NC)nc2[nH]c3cc(-c4c(C)noc4C)c(OC)cc3c12 [HJB97] | 0.15 | 
COC(=O)C[C@@H]1N=C(c2ccc(Cl)cc2)c2c(sc(C)c2C)-n2c(C)nnc21 [MS-417] | 0.29 | 
CC(=O)N1c2ccc(-c3ccc(C(=O)NCCOCCOCCOCC(=O)N[C@H](C(=O)N4C[C@H](O)C[C@H]4C(=O)NCc4ccc(-c5scnc5C)cc4)C(C)(C)C)cc3)cc2[C@H](Nc2ccc(Cl)cc2)C[C@@H]1C [MZP-54] | 1.18 | 
Cc1ncsc1-c1ccc(CNC(=O)[C@@H]2C[C@@H](O)CN2C(=O)[C@@H](NC(=O)C2(C#N)CC2)C(C)(C)C)c(O)c1 [OH-VH298 (S,R,S)] | 0.48 | 
Cc1sc2c(c1C)C(c1ccc(Cl)cc1)=N[C@@H](CC(=O)Nc1ccc(O)cc1)c1nnc(C)n1-2 [OTX-015] | 0.64 | 
Nc1ccc(OCCOCCOCCOCCNc2cccc3c2C(=O)N(C2CCC(=O)NC2=O)C3=O)cc1 (centres unmarked) [PEG4-PH-NH2-pomalidomide] | 0.12 | 
Cc1sc2c(c1C)C(c1ccc(Cl)cc1)=N[C@@H](CC(=O)NCCCCCC(=O)NCc1cccc3c1C(=O)N(C1CCC(=O)NC1=O)C3=O)c1nnc(C)n1-2 (some centres unmarked) [PROTAC BET degrader-10] | 0.83 | 
Cc1ncsc1-c1ccc(CNC(=O)[C@@H]2C[C@@H](O)CN2C(=O)[C@@H](NC(=O)CCOCCOc2ccc(Nc3ncc(C(F)(F)F)c(NCc4cccc(N(C)S(C)(=O)=O)c4)n3)cc2)C(C)(C)C)cc1 [PROTAC FAK degrader-1] | 0.79 | 
O=C(CCCCC(=O)NCCN1C(=O)c2cccc3c(Sc4ccc(Br)cc4)ccc(c23)C1=O)NCCCCCCNc1cccc2c1C(=O)N(C1CCC(=O)NC1=O)C2=O (centres unmarked) [PROTAC Mcl degrader-1] | 0.93 | 
Cc1ncsc1-c1ccc(CNC(=O)[C@@H]2C[C@@H](O)CN2C(=O)[C@@H](NC(=O)COCCOCCNC(=O)COc2cnc3c(C4CCN(C(=O)c5ccc(OC(F)(F)F)cc5)CC4)ncnc3c2)C(C)(C)C)cc1 [PROTAC-1] | 1.07 | 

Structure (SMILES) | Chamelogk [1] | other results
COC(=O)C[C@@H]1N=C(c2ccc(Cl)cc2)c2c(sc(C(=O)NCCCCCNc3cccc4c3C(=O)N(C3CCC(=O)NC3=O)C4=O)c2C)-n2c(C)nnc21 (some centres unmarked) [ZXH-3-26] | 0.65 | 
CC(C)=O [acetone] | –0.13 | 
c1ccc(-c2ccc(C(c3ccccc3)n3ccnc3)cc2)cc1 (centres unmarked) [bifonazole] | 0.45 | 
Cc1ncsc1-c1ccc(CNC(=O)[C@@H]2C[C@H](O)CN2C(=O)[C@@H](NC(=O)C2(C#N)CC2)C(C)(C)C)c(O)c1 [cis-OH-VH298 (S,S,S)] | 0.45 | 
CC(=O)N[C@H](C(=O)N1C[C@@H](O)C[C@H]1C(=O)NCc1ccc(-c2scnc2C)cc1O)C(C)(C)C [cis-phenol-VH032 (S,S,S)] | 0.65 | 
Clc1ccccc1C(c1ccccc1)(c1ccccc1)n1ccnc1 [clotrimazole] | 0.71 | 
Cc1sc2c(c1C)C(c1ccc(Cl)cc1)=N[C@@H](CC(=O)NCCCCNC(=O)COc1cccc3c1C(=O)N(C1CCC(=O)NC1=O)C3=O)c1nnc(C)n1-2 (some centres unmarked) [dBET1] | 0.8 | 
Cc1sc2c(c1C)C(c1ccc(Cl)cc1)=N[C@@H](CC(=O)NCCCCCCCCNC(=O)COc1cccc3c1C(=O)N(C1CCC(=O)NC1=O)C3=O)c1nnc(C)n1-2 (some centres unmarked) [dBET6] | 0.86 | 
CN1C(=O)CN=C(c2ccccc2)c2cc(Cl)ccc21 [diazepam] | 0.30 | Chamelogk ([1]; listed as Diazepam): 0.3
CC/C(=C(/CC)c1ccc(O)cc1)c1ccc(O)cc1 [diethylstilbestrol] | 0.44 | 
CO[C@H]1C[C@@H]2CC[C@@H](C)[C@@](O)(O2)C(=O)C(=O)N2CCCC[C@H]2C(=O)O[C@H]([C@H](C)C[C@@H]2CC[C@@H](OCCO)[C@H](OC)C2)CC(=O)[C@H](C)/C=C(\C)[C@@H](O)[C@@H](OC)C(=O)[C@H](C)C[C@H](C)/C=C/C=C/C=C/1C [everolimus] | 0.45 | ChameLogD [2]: 1.7; log kW^IAM [3]: 4.15; Δ log kW^IAM [3]: 0.71; chromatographic logD [4]: 4.86
COc1cc2ncnc(Nc3ccc(F)c(Cl)c3)c2cc1OCCCCCOCCOCCC(=O)N[C@H](C(=O)N1C[C@H](O)C[C@H]1C(=O)NCc1ccc(-c2scnc2C)cc1)C(C)(C)C [gefitinib-based PROTAC 3] | 1.36 | 
C[C@]12CCC(=O)C=C1CC[C@@H]1[C@@H]2[C@@H](O)C[C@@]2(C)[C@H]1CC[C@]2(O)C(=O)CO [hydrocortisone] | 0.10 | Chamelogk ([1]; listed as Hydrocortisone): 0.1
c1ccc2ccccc2c1 [naphthalene] | 0.02 | 
CC(=O)O[C@H]1C(=O)[C@@]2(C)[C@H]([C@H](OC(=O)c3ccccc3)[C@]3(O)C[C@H](OC(=O)[C@H](O)[C@@H](NC(=O)c4ccccc4)c4ccccc4)C(C)=C1C3(C)C)[C@]1(OC(C)=O)CO[C@@H]1C[C@@H]2O [paclitaxel] | 0.15 | 
CC(=O)N[C@H](C(=O)N1C[C@H](O)C[C@H]1C(=O)NCc1ccc(-c2scnc2C)cc1O)C(C)(C)C [phenol-VH032 (S,R,S)] | 0.37 | 
Oc1ccccc1 [phenol] | 0.16 | 
CC[C@@H]1/C=C(\C)C[C@H](C)C[C@H](OC)[C@H]2O[C@@](O)(C(=O)C(=O)N3CCCC[C@H]3C(=O)O[C@H](/C(C)=C/[C@@H]3CC[C@H](Cl)[C@H](OC)C3)[C@H](C)[C@@H](O)CC1=O)[C@H](C)C[C@@H]2OC [pimecrolimus] | 0.43 | log kW^IAM [3]: 3.35; Δ log kW^IAM [3]: -1.62; chromatographic logD [4]: 6.52
Nc1cccc2c1C(=O)N(C1CCC(=O)NC1=O)C2=O (centres unmarked) [pomalidomide] | 0.00 | Chamelogk ([1]; listed as Pomalidomide): 0
CO[C@H]1C[C@@H]2CC[C@@H](C)[C@@](O)(O2)C(=O)C(=O)N2CCCC[C@H]2C(=O)O[C@H]([C@H](C)C[C@@H]2CC[C@@H](OC(=O)C(C)(CO)CO)[C@H](OC)C2)CC(=O)[C@H](C)/C=C(\C)[C@@H](O)[C@@H](OC)C(=O)[C@H](C)C[C@H](C)/C=C/C=C/C=C/1C [temsirolimus] | 0.23 | ChameLogD [2]: 2
C=C/C=C/C[C@@H](C)[C@@H](O)[C@H]1C(=O)N[C@@H](CC)C(=O)N(C)CC(=O)N(C)[C@@H](CC(C)C)C(=O)N[C@@H](C(C)C)C(=O)N(C)[C@@H](CC(C)C)C(=O)N[C@@H](C)C(=O)N[C@H](C)C(=O)N(C)[C@@H](CC(C)C)C(=O)N(C)[C@@H](CC(C)C)C(=O)N(C)[C@@H](C(C)C)C(=O)N1C [voclosporin] | 1.15 | 
